Test results taken from publication PMC3927474, “Whole body synthesis rates of DHA from α-linolenic acid are greater than brain DHA accretion and uptake rates in adult rats” (Journal of Lipid Research, 2014).

Key:
Assay in all cases: Brain gene expression (TLDA qPCR)
Assay type in all cases: in vivo, rat
Conditions in all cases: 15 wk diet; control diet = 1
uncoupling protein 2 = system: uncoupling protein 2
Method: (§1) RNA was extracted from the flash-frozen half brains of the 15 week postweaning rats. The brain was briefly thawed and dissected to isolate the brainstem, cerebellum, cortex, hippocampus, striatum, and the rest of the brain. RNA was extracted from the brain regions using Trizol reagent (Ambion; Life Technologies, Burlington, ON, Canada) according to the manufacturer's protocol. […] Chloroform was added to the Trizol reagent at a ratio of 1:5 (chloroform:Trizol reagent) and the solution was mixed and incubated at room temperature. The solution was then centrifuged at 12,000 g for 15 min at 4°C. […] The samples were then centrifuged at 12,000 g for 10 min at 4°C to precipitate the RNA pellet. […] The pellet was allowed to air dry, and was then dissolved in RNase-free water. A Nanodrop 1000 (NanoDrop Technologies Inc., Wilmington, DE) was used to determine the concentration and purity of each sample by measuring absorbance at 260 and 280 nm. Each sample was aliquoted to make 1 μg of RNA per 10 μl of sample and stored at -80°C. A high-capacity cDNA reverse transcription kit (Applied Biosystems, Burlington, ON, Canada) was used to reverse transcribe 1 μg of RNA according to the manufacturer's instructions. Newly synthesized cDNA was stored at -20°C until the following day when it was loaded onto TaqMan low density array (TLDA) plates. Quantitative real-time PCR was performed using TLDA (Applied Biosystems) on the 7900HT real-time PCR system (Applied Biosystems). cDNA (50 ng) was diluted with water to make a volume of 50 μl and mixed with 50 μl of TaqMan Universal PCR Master Mix (Applied Biosystems). The mixture was then loaded onto a customized preconfigured 384-well TLDA plate according to the manufacturer's protocol. TaqMan gene expression assays were used to assess 21 genes that were previously reported to be differentially expressed with n-3 deprivation. […] All genes were normalized to phosphoglycerate kinase 1. Similar results were found when normalizing to β-actin or 18S rRNA.

retinoic acid receptor α = system: retinoic acid receptor α
Method: as §1

[1] = system: prostaglandin E synthase 3
Method: as §1

retnoid X receptor β = system: retnoid X receptor β
Method: as §1

retnoid X receptor α = system: retnoid X receptor α
Method: as §1

PPARg = system: PPARg
Method: as §1

tyrosine hydroxylase = system: tyrosine hydroxylase
Method: as §1

dopamine receptor D2 = system: dopamine receptor D2
Method: as §1

group 2a sPLA2 = system: group 2a sPLA2
Method: as §1

COX-2 = system: COX-2
Method: as §1

group 6 iPLA2 = system: group 6 iPLA2
Method: as §1

[2] = system: brain-derived neurotrophic factor
Method: as §1

β-actin = system: β-actin
Method: as §1

heme oxygenase 1 = system: heme oxygenase 1
Method: as §1

group 4 cPLA2 = system: group 4 cPLA2
Method: as §1

[3] = system: epidermal growth factor receptor
Method: as §1

CC/C=C\C/C=C\C/C=C\C/C=C\C/C=C\C/C=C\CCC(=O)O [DHA, Docosahexaenoic acid]
Brainstem gene expression: UCP2 (uncoupling protein 2): 1.08 RQ
Cerebellum gene expression: UCP2 (uncoupling protein 2): 0.87 RQ
Cortex gene expression: UCP2 (uncoupling protein 2): 1.02 RQ
Hippocampus gene expression: UCP2 (uncoupling protein 2): 1.07 RQ
Rest of brain gene expression: UCP2 (uncoupling protein 2): 1.20 RQ
Striatum gene expression: UCP2 (uncoupling protein 2): 1.00 RQ
Brainstem gene expression: RARa (retinoic acid receptor α): 1.52 RQ
Cerebellum gene expression: RARa (retinoic acid receptor α): 1.08 RQ
Cortex gene expression: RAR a (retinoic acid receptor α): 1.20 RQ
Hippocampus gene expression: RAR a (retinoic acid receptor α): 0.97 RQ
Rest of brain gene expression: RAR a (retinoic acid receptor α): 1.09 RQ
Striatum gene expression: RARa (retinoic acid receptor α): 0.93 RQ
Brainstem gene expression: PGES3 [1]: 1.10 RQ
Cerebellum gene expression: PGES3 [1]: 0.97 RQ
Cortex gene expression: PGES3 [1]: 1.07 RQ
Hippocampus gene expression: PGES3 [1]: 1.11 RQ
Rest of brain gene expression: PGES3 [1]: 1.14 RQ
Striatum gene expression: PGES3 [1]: 0.92 RQ
Brainstem gene expression: RXRb (retnoid X receptor β): 1.29 RQ
Cerebellum gene expression: RXRb (retnoid X receptor β): 0.96 RQ
Cortex gene expression: RXR b (retnoid X receptor β): 1.05 RQ
Hippocampus gene expression: RXR b (retnoid X receptor β): 1.07 RQ
Rest of brain gene expression: RXR b (retnoid X receptor β): 1.12 RQ
Striatum gene expression: RXRb (retnoid X receptor β): 1.02 RQ
Brainstem gene expression: RXRa (retnoid X receptor α): 1.02 RQ
Cerebellum gene expression: RXRa (retnoid X receptor α): 0.98 RQ
Cortex gene expression: RXR a (retnoid X receptor α): 1.03 RQ
Hippocampus gene expression: RXR a (retnoid X receptor α): 1.10 RQ
Rest of brain gene expression: RXR a (retnoid X receptor α): 1.17 RQ
Striatum gene expression: RXRa (retnoid X receptor α): 1.02 RQ
Brainstem gene expression: PPARg (PPARg): 1.11 RQ
Cerebellum gene expression: PPARg (PPARg): 1.07 RQ
Cortex gene expression: PPARg (PPARg): 1.36 RQ
Hippocampus gene expression: PPARγ (PPARg): 0.47 RQ
Rest of brain gene expression: PPARg (PPARg): 1.14 RQ
Striatum gene expression: PPARg (PPARg): 0.83 RQ
Brainstem gene expression: TH (tyrosine hydroxylase): 0.98 RQ
Cerebellum gene expression: TH (tyrosine hydroxylase): 1.23 RQ
Cortex gene expression: TH (tyrosine hydroxylase): 1.11 RQ
Hippocampus gene expression: TH (tyrosine hydroxylase): 1.01 RQ
Rest of brain gene expression: TH (tyrosine hydroxylase): 1.18 RQ
Striatum gene expression: TH (tyrosine hydroxylase): 1.19 RQ
Brainstem gene expression: DR D2 (dopamine receptor D2): 0.88 RQ
Cerebellum gene expression: DR D2 (dopamine receptor D2): 1.09 RQ
Cortex gene expression: DR D2 (dopamine receptor D2): 1.12 RQ
Hippocampus gene expression: DR D2 (dopamine receptor D2): 0.95 RQ
Rest of brain gene expression: DR D2 (dopamine receptor D2): 1.05 RQ
Striatum gene expression: DR D2 (dopamine receptor D2): 0.98 RQ
Brainstem gene expression: sPLA2 (group 2a sPLA2): 1.10 RQ
Cerebellum gene expression: sPLA2 (group 2a sPLA2): 0.98 RQ
Cortex gene expression: spla2 (group 2a sPLA2): 1.17 RQ
Hippocampus gene expression: sPLA2 (group 2a sPLA2): 0.93 RQ
Rest of brain gene expression: sPLA2 (group 2a sPLA2): 1.17 RQ
Striatum gene expression: sPLA2 (group 2a sPLA2): 0.68 RQ
Brainstem gene expression: COX 2 (COX-2): 3.34 RQ
Cerebellum gene expression: COX 2 (COX-2): 1.41 RQ
Cortex gene expression: COX 2 (COX-2): 1.29 RQ
Hippocampus gene expression: COX 2 (COX-2): 1.12 RQ
Rest of brain gene expression: COX 2 (COX-2): 1.21 RQ
Striatum gene expression: COX 2 (COX-2): 0.75 RQ
Brainstem gene expression: iPLA2 (group 6 iPLA2): 1.10 RQ
Cerebellum gene expression: iPLA2 (group 6 iPLA2): 1.00 RQ
Cortex gene expression: iPLA2 (group 6 iPLA2): 1.09 RQ
Hippocampus gene expression: iPLA2 (group 6 iPLA2): 1.05 RQ
Rest of brain gene expression: iPLA2 (group 6 iPLA2): 1.10 RQ
Striatum gene expression: iPLA2 (group 6 iPLA2): 0.90 RQ
Brainstem gene expression: BDNF [2]: 1.19 RQ
Cerebellum gene expression: BDNF [2]: 0.88 RQ
Cortex gene expression: BDNF [2]: 1.16 RQ
Hippocampus gene expression: BDNF [2]: 1.13 RQ
Rest of brain gene expression: BDNF [2]: 0.99 RQ
Striatum gene expression: BDNF [2]: 2.10 RQ
Brainstem gene expression: b-actin (β-actin): 1.10 RQ
Cerebellum gene expression: b actin (β-actin): 0.98 RQ
Cortex gene expression: b actin (β-actin): 1.05 RQ
Hippocampus gene expression: B-actin (β-actin): 1.12 RQ
Rest of brain gene expression: b actin (β-actin): 1.08 RQ
Striatum gene expression: b actin (β-actin): 0.92 RQ
Brainstem gene expression: HO1 (heme oxygenase 1): 0.99 RQ
Cerebellum gene expression: HO1 (heme oxygenase 1): 0.99 RQ
Cortex gene expression: HO1 (heme oxygenase 1): 1.11 RQ
Hippocampus gene expression: HO1 (heme oxygenase 1): 1.03 RQ
Rest of brain gene expression: HO1 (heme oxygenase 1): 1.04 RQ
Striatum gene expression: HO1 (heme oxygenase 1): 0.94 RQ
Brainstem gene expression: cPLA2 (group 4 cPLA2): 6.22 RQ
Cerebellum gene expression: cPLA2 (group 4 cPLA2): 0.98 RQ
Cortex gene expression: cPLA2 (group 4 cPLA2): 1.11 RQ
Hippocampus gene expression: cPLA2 (group 4 cPLA2): 0.98 RQ
Rest of brain gene expression: cPLA2 (group 4 cPLA2): 0.99 RQ
Striatum gene expression: cPLA2 (group 4 cPLA2): 0.92 RQ
Brainstem gene expression: EGFR [3]: 1.14 RQ
Cerebellum gene expression: EGFR [3]: 0.96 RQ
Cortex gene expression: EGFR [3]: 0.99 RQ
Hippocampus gene expression: EGFR [3]: 1.04 RQ
Rest of brain gene expression: EGFR [3]: 1.08 RQ
Striatum gene expression: EGFR [3]: 0.82 RQ
